According to patent US12150996B2, “Polymeric prodrugs and subcutaneous and/or intramuscular administration thereof” (priority 2017, dated 2024):

Legend:
SC tissue = test: SC toxicity at the injection site (Example 10)
Procedure: The same studies were carried out with a polymer according to the invention coupled with Cyanine 5.5.

[1] = Pharmacokinetics and biodistribution of radiolabelled PTX; details: mice, liver, kidneys, spleen, lungs; radiolabel
Procedure: 7 week old female BALB/c OlaHsd mice (˜22 g; Envigo, France) were used. […] Each group consisted of 40 mice divided into 10 different times (0.25 h, 0.5 h, 1 h, 2 h, 4 h, 7 h, 24 h, 48 h, 96 h and 144 h) leading to 4 mice per group. […] Livers, kidneys, spleens, lungs and some SC tissue at the injection site were also collected. All the samples were stored in a freezer (−20° C.) for a maximum of one week before analysis. For the radioactivity count, approximately 100 μl of plasma and 100 mg of each organ/tissue were removed and weighed with precision. The organs were first dissolved by adding 1 ml of soluble solution (PerkinElmer, USA) and the samples were placed overnight in an oven at 60° C. They were then whitewashed by twice adding 100 μL of 30% H2O2 (weight/volume) and heated for 30 min at 60° C. in an oven. Finally, the treated plasma and organ samples were mixed with Hionic-FluorUltimagold (PerkinElmer, USA) and the radioactivity was measured with a versatile LS 6500 scintillation counter (Beckman Coulter).
Pharmacokinetic and biodistribution studies were also conducted for the polyacrylamide compound containing paclitaxel. Paclitaxel was radiolabelled and coupled to the polymer by an ester link (stable link) so that it could be followed in the blood and in various organs (liver, lungs, kidneys, spleen, SC tissue). […]

Molecule | SC toxicity (necrosis of SC tissue) (SC tissue; in vivo, sc, 0.8 mg/kg) | Elimination (biodistribution) [1] | Toxicity at the injection site (SC tissue; SC administration at 30 mg/kg (paclitaxel equivalent) once a day for 4 days, FIG. 12)
Cyanine 5.5 | very necrotizing for SC tissue |  | 
CC(=O)O[C@H]1C(=O)[C@@]2(C)[C@H]([C@H](OC(=O)c3ccccc3)[C@]3(O)C[C@H](OC(=O)[C@H](O)[C@@H](NC(=O)c4ccccc4)c4ccccc4)C(C)=C1C3(C)C)[C@]1(OC(C)=O)CO[C@@H]1C[C@@H]2O [paclitaxel] |  | predominantly hepatic elimination | local toxicity effects
